Reference: ChEMBL document CHEMBL4219204, “Structure-based design and discovery of potent and selective KDM5 inhibitors” (Bioorg Med Chem Lett, 2018)

Legend:
[1] = biological target: Lysine-specific demethylase 5B (Homo sapiens, UniProt Q9UGL1); test: Inhibition of KDM5B (unknown origin) preincubated with enzyme
[2] = biological target: Lysine-specific demethylase 5A (Homo sapiens, UniProt P29375); test: Inhibition of KDM5A (unknown origin) preincubated with enzyme
[3] = biological target: Lysine-specific demethylase 5A/5B (Homo sapiens, UniProt P29375+Q9UGL1); test: Inhibition of KDM5A/KDM5B in human ZR-75-1 cells assessed as increase in H3K4me3 level after 72 hrs by fluorometric immunoassay; assay type: cell-based
[4] = biological target: T1, Lysine-specific demethylase 4C (Homo sapiens, UniProt Q9H3R0); test: Inhibition of KDM4C (unknown origin) preincubated with enzyme
T1 sequence (Q9H3R0 whole entry): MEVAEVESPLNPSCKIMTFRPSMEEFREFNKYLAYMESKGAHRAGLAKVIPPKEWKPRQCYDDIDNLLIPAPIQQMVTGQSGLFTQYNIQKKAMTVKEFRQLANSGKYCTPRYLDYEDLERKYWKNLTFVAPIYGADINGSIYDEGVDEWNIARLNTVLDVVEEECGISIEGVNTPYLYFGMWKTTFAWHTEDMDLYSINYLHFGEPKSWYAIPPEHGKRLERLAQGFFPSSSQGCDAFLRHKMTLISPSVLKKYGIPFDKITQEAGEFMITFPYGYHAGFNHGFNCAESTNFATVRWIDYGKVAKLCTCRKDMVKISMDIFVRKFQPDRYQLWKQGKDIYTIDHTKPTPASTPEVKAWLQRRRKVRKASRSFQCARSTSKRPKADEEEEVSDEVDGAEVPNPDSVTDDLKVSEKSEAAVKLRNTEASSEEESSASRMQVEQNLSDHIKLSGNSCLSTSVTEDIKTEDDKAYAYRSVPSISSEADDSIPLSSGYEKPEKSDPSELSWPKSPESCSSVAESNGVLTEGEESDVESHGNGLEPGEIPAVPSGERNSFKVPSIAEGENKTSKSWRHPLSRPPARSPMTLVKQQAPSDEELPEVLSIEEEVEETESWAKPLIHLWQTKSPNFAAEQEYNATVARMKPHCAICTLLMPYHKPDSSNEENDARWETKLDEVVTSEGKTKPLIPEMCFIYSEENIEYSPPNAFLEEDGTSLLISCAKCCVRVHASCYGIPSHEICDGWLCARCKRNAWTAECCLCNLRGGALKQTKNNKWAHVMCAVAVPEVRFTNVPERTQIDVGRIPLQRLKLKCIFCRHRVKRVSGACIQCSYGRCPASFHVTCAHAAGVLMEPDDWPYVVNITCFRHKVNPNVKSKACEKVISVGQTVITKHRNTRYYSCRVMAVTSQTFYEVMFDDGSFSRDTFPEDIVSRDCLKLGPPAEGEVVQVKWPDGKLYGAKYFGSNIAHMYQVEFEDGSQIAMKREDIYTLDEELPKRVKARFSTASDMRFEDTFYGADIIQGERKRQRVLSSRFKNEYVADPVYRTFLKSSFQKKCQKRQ

Sequence of Lysine-specific demethylase 5A (P29375 whole entry): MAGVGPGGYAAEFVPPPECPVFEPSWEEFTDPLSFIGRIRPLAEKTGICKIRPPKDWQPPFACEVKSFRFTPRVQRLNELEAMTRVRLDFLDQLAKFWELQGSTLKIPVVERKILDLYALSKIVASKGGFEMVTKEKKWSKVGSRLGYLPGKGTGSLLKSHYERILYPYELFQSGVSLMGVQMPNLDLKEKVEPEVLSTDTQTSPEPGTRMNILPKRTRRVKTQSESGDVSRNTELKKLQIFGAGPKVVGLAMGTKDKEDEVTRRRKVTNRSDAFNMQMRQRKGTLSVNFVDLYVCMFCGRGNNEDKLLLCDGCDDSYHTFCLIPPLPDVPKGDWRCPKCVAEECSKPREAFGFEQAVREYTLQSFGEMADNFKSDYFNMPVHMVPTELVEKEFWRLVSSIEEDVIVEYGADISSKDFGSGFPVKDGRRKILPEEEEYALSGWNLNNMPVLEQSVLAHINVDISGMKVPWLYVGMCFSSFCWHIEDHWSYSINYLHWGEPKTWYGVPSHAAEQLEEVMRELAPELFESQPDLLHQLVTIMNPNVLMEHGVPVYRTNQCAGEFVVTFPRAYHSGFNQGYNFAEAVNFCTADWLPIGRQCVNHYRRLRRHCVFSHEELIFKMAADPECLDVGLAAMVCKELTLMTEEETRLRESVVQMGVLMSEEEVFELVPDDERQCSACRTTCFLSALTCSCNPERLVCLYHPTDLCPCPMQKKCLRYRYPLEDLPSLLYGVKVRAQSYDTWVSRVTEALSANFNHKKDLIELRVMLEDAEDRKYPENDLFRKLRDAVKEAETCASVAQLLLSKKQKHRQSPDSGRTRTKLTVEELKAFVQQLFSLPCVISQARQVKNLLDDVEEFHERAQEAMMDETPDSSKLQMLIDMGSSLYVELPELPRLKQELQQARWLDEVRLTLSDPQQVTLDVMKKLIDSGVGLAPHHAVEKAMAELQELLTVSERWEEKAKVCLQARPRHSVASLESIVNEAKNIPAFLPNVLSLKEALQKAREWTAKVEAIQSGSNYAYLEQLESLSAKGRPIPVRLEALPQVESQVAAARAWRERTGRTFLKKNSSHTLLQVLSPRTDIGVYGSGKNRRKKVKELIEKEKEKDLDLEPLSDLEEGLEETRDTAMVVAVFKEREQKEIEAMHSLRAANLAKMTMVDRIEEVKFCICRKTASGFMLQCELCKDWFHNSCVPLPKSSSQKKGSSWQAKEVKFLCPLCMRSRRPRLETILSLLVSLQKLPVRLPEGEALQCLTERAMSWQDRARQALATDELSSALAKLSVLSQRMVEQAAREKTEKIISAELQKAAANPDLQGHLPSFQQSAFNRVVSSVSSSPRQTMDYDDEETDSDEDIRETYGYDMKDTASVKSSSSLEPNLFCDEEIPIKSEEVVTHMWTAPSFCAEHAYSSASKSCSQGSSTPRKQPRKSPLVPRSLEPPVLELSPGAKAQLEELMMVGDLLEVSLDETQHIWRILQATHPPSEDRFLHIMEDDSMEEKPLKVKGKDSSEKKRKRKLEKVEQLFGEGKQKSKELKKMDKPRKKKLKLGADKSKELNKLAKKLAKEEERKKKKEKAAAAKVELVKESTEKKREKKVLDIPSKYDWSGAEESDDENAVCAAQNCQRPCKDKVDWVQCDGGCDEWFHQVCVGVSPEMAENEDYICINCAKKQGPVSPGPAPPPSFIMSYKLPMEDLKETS
Sequence of Lysine-specific demethylase 5B (Q9UGL1 whole entry): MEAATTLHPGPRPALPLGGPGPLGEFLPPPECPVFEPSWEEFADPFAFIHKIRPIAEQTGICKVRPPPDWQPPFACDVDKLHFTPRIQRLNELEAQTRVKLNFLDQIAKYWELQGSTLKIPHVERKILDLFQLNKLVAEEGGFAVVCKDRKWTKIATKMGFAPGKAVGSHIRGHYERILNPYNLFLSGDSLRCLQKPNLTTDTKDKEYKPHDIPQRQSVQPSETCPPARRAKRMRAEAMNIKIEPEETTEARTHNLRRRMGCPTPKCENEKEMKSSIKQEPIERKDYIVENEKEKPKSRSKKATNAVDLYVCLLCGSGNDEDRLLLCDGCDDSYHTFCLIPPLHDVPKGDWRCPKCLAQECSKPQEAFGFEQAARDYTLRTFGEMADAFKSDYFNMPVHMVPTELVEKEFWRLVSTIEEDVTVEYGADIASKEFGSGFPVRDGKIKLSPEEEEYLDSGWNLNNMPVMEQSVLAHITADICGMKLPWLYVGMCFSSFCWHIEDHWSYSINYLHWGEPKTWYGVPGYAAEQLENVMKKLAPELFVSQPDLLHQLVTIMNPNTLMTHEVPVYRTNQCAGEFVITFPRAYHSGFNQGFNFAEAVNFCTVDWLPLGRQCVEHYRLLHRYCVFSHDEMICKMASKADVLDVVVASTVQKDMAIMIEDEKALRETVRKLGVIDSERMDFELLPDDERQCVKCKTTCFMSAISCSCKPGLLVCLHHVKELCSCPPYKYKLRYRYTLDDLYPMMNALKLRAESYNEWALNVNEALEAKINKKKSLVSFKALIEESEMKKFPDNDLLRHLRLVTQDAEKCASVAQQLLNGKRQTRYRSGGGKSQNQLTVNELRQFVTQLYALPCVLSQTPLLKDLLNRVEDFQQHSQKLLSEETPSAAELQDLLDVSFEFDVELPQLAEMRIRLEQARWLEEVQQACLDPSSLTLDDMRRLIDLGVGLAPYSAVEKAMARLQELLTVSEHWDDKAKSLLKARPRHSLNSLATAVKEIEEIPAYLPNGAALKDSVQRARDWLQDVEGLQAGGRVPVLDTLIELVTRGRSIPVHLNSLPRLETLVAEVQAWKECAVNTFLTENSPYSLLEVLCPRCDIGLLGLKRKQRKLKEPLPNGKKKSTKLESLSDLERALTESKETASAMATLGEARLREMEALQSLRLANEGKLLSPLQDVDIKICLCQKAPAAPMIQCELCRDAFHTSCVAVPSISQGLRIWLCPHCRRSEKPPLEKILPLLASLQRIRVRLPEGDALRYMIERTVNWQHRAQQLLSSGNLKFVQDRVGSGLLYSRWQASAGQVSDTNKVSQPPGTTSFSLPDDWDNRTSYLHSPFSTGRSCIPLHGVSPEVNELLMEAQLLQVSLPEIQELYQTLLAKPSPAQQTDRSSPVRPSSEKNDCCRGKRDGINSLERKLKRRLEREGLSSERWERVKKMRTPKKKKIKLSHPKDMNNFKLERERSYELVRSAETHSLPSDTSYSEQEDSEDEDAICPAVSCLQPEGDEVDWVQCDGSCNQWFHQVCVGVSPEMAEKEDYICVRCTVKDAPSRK

SMILES | IC50 [1] [nM] | IC50 [2] [nM] | EC50 [3] [nM] | IC50 [4] [nM]
O=C(O)c1ccnc(-n2nccc2OCc2ccc(C(F)(F)F)cc2)c1 |  | 240 |  | 
O=C(O)c1ccnc(-n2nccc2OCc2ccc(Cl)cc2F)c1 | 4 | 18 | 1300 | 
COc1cc(-c2ccnn2-c2cc(C(=O)O)ccn2)ccc1Cl | 230 |  |  | 2900
O=C(O)c1ccnc(-n2nccc2-c2cccc(F)c2)c1 | 500 |  |  | 660
O=C(O)c1ccnc(-n2nccc2-c2ccccc2)c1 | 4400 |  |  | 6200
CN(C)CCc1cnn(-c2cc(C(=O)O)ccn2)c1OCc1ccc(F)cc1 | 1 | 3 | 4600 | 19
COc1cc(-c2ccnn2-c2cc(C(=O)O)ccn2)ccc1C | 540 |  |  | 1800
O=C(O)c1ccnc(-n2nccc2OCc2ccccc2)c1 | 1 to 24 | 550 | 7000 | 5
Cc1cnn(-c2cc(C(=O)O)ccn2)c1OCc1ccc(F)cc1 | 54 | 77 |  | 2900
O=C(O)c1ccnc(-n2nccc2OCc2cccc(F)c2)c1 | 22 | 430 | 12000 | 
Cc1ccc(-c2ccnn2-c2cc(C(=O)O)ccn2)cc1O | 76 |  |  | 1100
O=C(O)c1ccnc(-n2nccc2OCc2ccc(F)cc2)c1 | 4 | 38 | 840 | 24
O=C(O)c1ccnc(-n2nccc2-c2ccc(F)cc2F)c1 | 170 |  |  | 380
O=C(O)c1ccnc(-n2nccc2OCc2ccc(Br)cc2)c1 | 2 | 6 | 860 | 

Next, values leading:

IC50 [1] [nM] | IC50 [2] [nM] | EC50 [3] [nM] | IC50 [4] [nM] | SMILES
42 | 270 |  |  | O=C(O)c1ccnc(-n2nccc2OCc2ccccc2F)c1
4 | 1700 |  | 68 | COc1ccc(COc2ccnn2-c2cc(C(=O)O)ccn2)cc1
320 |  |  | 450 | O=C(O)c1ccnc(-n2nccc2-c2ccc(O)cc2)c1
0.6 | 4 | 940 | 14 | N#Cc1ccc(COc2ccnn2-c2cc(C(=O)O)ccn2)cc1
4 | 32 | 800 | 74 | O=C(O)c1ccnc(-n2nccc2OCc2ccc(Cl)cc2OCc2ccccc2)c1
41 | 180 |  | 310 | CC(Oc1ccnn1-c1cc(C(=O)O)ccn1)c1ccc(F)cc1 (stereo unspecified)
3 | 44 | 1300 | 3600 | CCc1ccc(COc2ccnn2-c2cc(C(=O)O)ccn2)cc1
1 | 12 | 110 | 38 | COc1cc(Cl)ccc1COc1ccnn1-c1cc(C(=O)O)ccn1
24 | 29 |  | 260 | CCc1cnn(-c2cc(C(=O)O)ccn2)c1OCc1ccc(F)cc1
120 |  |  | 410 | O=C(O)c1ccnc(-n2nccc2-c2cccc(O)c2)c1
4 | 19 | 1000 | 78 | CCOc1cc(Cl)ccc1COc1ccnn1-c1cc(C(=O)O)ccn1
240 |  |  | 490 | O=C(O)c1ccnc(-n2nccc2-c2ccc(F)cc2)c1
8 | 250 |  |  | O=C(O)c1ccnc(-n2nccc2OCc2ccc(C3CC3)cc2)c1
370 |  |  | 560 | O=C(O)c1ccnc(-n2nccc2-c2ccc(F)c(F)c2)c1
350 |  |  | 2700 | CS(=O)(=O)c1ccc(-c2ccnn2-c2cc(C(=O)O)ccn2)cc1
4 | 14 | 420 | 54 | O=C(O)c1ccnc(-n2nccc2OCc2ccc(Cl)cc2)c1
68 | 80 |  | > 2000 | O=C(O)c1ccnc(-n2ncc(CCO)c2OCc2ccc(F)cc2)c1
200 |  |  | 1100 | Cc1ccc(-c2ccnn2-c2cc(C(=O)O)ccn2)cc1
4 | 32 | 990 | 1100 | Cc1ccc(COc2ccnn2-c2cc(C(=O)O)ccn2)cc1
6 | 75 |  | 280 | O=C(O)c1ccnc(-n2nccc2OCc2ccc(Cl)cc2OCC2CC2)c1
